According to ChEMBL document CHEMBL6134851, “Comparative Study on Covalent and Noncovalent Endogenous Albumin-Binding β-Glucuronidase-Activated SN38 Prodrugs for Antitumor Efficacy” (J Med Chem, 2025):
The source made the active and inactive calls. No cut-off for these calls is given here.

Columns and labels:
[1] = Toxicity in female BALB/cA nude mouse assessed as fibrotic changes in liver at 38 mg/kg, iv administered once a week for 35 days by H and E staining based analysis; type: organism-based; details: in vivo, 840 h, time 35 day
BXPC-3 = experiment: Antitumor activity against human BXPC-3 cells xenografted in female BALB/cA nude mouse model assessed as suppression of tumor growth by measuring relative tumor proliferation rate at 38 mg/kg, iv measured after 17 days relative to control; type: functional; details: time 17 day
[2] = Toxicity in female BALB/cA nude mouse assessed as appearance of inflammatory lesions in spleen at 38 mg/kg, iv administered once a week for 35 days by H and E staining based analysis; type: organism-based; details: in vivo, 840 h, time 35 day
HCT-116 = experiment: Antitumor activity against human HCT-116 cells xenografted in female BALB/cA nude mouse model assessed as increase in tumor cell apoptosis by measuring increase in red fluorescence at 38 mg/kg, iv by TUNEL analysis; type: functional, organism-based
[3] = Toxicity in female BALB/cA nude mouse assessed as appearance of inflammatory lesions in heart at 25 mg/kg, iv administered once a week for 35 days by H and E staining based analysis; type: organism-based; details: in vivo, 840 h, time 35 day
[4] = Toxicity in female BALB/cA nude mouse assessed as fibrotic changes in heart at 25 mg/kg, iv administered once a week for 35 days by H and E staining based analysis; type: organism-based; details: in vivo, 840 h, time 35 day
[5] = Prodrug release in female BALB/c nude mouse tumor assessed as (S)-4,11-diethyl-4,9-dihydroxy-1,12-dihydro-14H-pyrano[3',4':6,7]indolizino[1,2-b]quinoline-3,14(4H)-dione accumulation at 25 mg/kg measured after 12 hr by HPLC analysis; type: ADME, organism-based, Neoplasm; details: in vivo

Row | Compound | Activity [1] | Activity (BXPC-3) [%] | Activity [2] | Activity (HCT-116) | Activity [3] | Activity [4] | Drug metabolism [5] [% ID/g]
1 | CCc1c2c(nc3ccc(OCc4ccc(O[C@@H]5O[C@H](C(=O)O)[C@@H](O)[C@H](O)[C@H]5O)c(NC(=O)CCNC(=O)COCCOCCNC(=O)COCCOCCNC(=O)CC[C@H](NC(=O)CCCCCCCCCCCCCCCCC(=O)O)C(=O)O)c4)cc13)-c1cc3c(c(=O)n1C2)COC(=O)[C@]3(O)CC | Non-toxic | 34.39 | Non-toxic | Active |  |  | 
2 | CCc1c2c(nc3ccc(OCc4ccc(O[C@@H]5O[C@H](C(=O)O)[C@@H](O)[C@H](O)[C@H]5O)c(NC(=O)CCNC(=O)CCCCCN5C(=O)C=CC5=O)c4)cc13)-c1cc3c(c(=O)n1C2)COC(=O)[C@]3(O)CC |  |  |  |  | Non-toxic | Non-toxic | 0.725
